# Reference: patent publication US20250127906A1, “SMALL-MOLECULE DEGRADERS OF CDK8 AND CDK19” (University of South Carolina, priority 2021, published 2025)
# Marks after values point to notes of the source that are not given here.
# Target: CDK19 (Homo sapiens, UniProt Q9BWU1)
# Experiment: CDK19 degradation in HEK-293 cells (Western blot)
# Assay type: cell-based
# Parameters: PROTACs on CDK8 and CDK19 degradation in HEK-293cells; endogenous in cells; host or cells: HEK-293
# Details: concentration degrading CDK19 to half of level in untreated cells
# Text: Furthermore, the degradation of both CDK8 and CDK19 by the PROTACs is also seen to decrease the levels of their binding partner cyclin C (CCNC) (FIG. 2B, D, E), which is known to be protected from proteolytic degradation by its interaction with CDK8 (Barette et al., 2001).
# (§1) FIGS. 2F and 2G show the effects of different concentrations of potent Senexin C- and BI-1347-based PROTACs on CDK8 and CDK19 degradation in HEK-293cells. Based on these assays, we calculated DC50 values that correspond to PROTAC concentrations inducing degradation of CDK8 and CDK19 to the half of protein level in untreated cells. The corresponding CDK8 DC50 values were 46 nM for IA7843, 6.6 nM for IA7882 and 2.8 nM for IA7886, and CDK19 DC50 values were 1 μM for IA7843, 25 nM for IA7882 and 10 nM for IA7886.
# Sequence of CDK19 (Q9BWU1 whole entry): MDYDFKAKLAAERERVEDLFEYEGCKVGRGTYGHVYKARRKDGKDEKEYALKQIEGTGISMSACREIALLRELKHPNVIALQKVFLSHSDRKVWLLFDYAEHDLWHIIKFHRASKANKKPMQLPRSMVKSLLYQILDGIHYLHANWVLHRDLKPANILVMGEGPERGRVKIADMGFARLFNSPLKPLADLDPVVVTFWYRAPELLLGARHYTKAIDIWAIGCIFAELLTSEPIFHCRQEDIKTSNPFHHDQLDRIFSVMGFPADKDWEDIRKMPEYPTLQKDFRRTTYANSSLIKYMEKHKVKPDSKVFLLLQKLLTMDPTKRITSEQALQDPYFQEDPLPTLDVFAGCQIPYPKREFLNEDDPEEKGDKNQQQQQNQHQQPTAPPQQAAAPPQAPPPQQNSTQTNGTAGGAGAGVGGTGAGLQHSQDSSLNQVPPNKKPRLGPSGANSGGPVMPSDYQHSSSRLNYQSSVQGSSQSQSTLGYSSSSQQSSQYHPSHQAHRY
# Sequence of CDK19 (P24863 whole entry partner): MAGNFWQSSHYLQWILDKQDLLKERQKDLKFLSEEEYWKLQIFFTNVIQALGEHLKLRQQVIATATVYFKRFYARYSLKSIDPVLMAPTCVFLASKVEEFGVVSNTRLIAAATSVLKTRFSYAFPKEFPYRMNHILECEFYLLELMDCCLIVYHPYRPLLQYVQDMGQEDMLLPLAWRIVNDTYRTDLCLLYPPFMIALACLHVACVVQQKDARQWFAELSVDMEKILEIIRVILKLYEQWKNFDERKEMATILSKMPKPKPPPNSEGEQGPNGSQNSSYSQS
row,SMILES,DC50 [nM]
1,N#Cc1ccc2nccc(NCCc3ccc4cc(C(=O)N5CCN(C(=O)CCCCCCCCCCNC(=O)CCCNc6cccc7c6C(=O)N(C6CCC(=O)NC6=O)C7=O)CC5)ccc4c3)c2c1 (centres unmarked) [IA7843],1000

# Target: CDK8 (Homo sapiens, UniProt P49336)
# Experiment: CDK8 degradation in HEK-293 cells (Western blot, normalized by GAPDH)
# Assay type: cell-based
# Parameters: endogenous in cells; host or cells: HEK-293
# Details: HEK-293; HP8580 200 nM and 1 μM, pomalidomide 5 μM, Senexin C 5 μM
# Description: Table 1 presents the structures of 35 different chimeras that have been synthesized, together with their effects (at 1 μM or 0.3 μM concentrations) on CDK8 degradation in HEK-293 cells. The synthesis schemes of all the compounds are described below. CDK8 degradation was measured by Western blot analysis of RIPA lysates of HEK-293cells treated with or without the test compound for 24 hours, using antibodies against CDK8 (Santa Cruz sc-1521) and housekeeping protein GAPDH (Santa Cruz sc-32233) (loading control) Protein bands on immunoblotted PVDF membranes were visualized with Western Lighting Plus ECL detection reagent (Perkin Elmer, Waltham, MA, USA) using ChemiDoc Touch™ (Bio-Rad). Image processing and densitometry analysis were performed using ImageLab software (Bio-Rad) to quantify the CDK8 protein levels (normalized by GAPDH) and evaluate the effects of compound treatment.
# as §1
# Sequence of CDK8 (P49336 whole entry): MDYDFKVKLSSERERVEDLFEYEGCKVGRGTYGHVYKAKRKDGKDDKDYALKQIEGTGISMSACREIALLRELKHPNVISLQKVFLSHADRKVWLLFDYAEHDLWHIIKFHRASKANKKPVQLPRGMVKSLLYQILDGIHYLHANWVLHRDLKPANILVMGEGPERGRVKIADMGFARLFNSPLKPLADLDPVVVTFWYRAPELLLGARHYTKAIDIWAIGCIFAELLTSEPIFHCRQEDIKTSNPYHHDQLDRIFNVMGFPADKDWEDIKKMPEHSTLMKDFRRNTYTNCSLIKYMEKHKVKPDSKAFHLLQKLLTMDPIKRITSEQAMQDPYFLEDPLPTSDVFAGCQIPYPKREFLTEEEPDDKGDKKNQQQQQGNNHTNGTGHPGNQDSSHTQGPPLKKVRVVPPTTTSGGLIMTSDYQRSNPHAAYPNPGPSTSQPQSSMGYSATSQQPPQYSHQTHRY
# Sequence of CDK8 (P24863 whole entry partner): as the sequence (P24863 whole entry partner) above
row,SMILES,induction of CDK8 degradation by single agents
1,"Nc1cccc2c1C(=O)N(C1CCC(=O)NC1=O)C2=O (centres unmarked) [pomalidomide, reference compound]",but not pomalidomide or Senexin C induced CDK8 degradation
2,"CN1CCN(C(=O)c2ccc3cc(CCNc4ccnc5ccc(C#N)cc45)ccc3c2)CC1 [Senexin C, reference compound]",but not pomalidomide or Senexin C induced CDK8 degradation

# Same assay, conditions: HEK-293 cells, 24 hours, tested at 0.3 μM (marked *)
row,SMILES,% CDK8 remaining [%*]
1,"O=C1CCC(N2C(=O)c3cccc(NCCOCCOCCOCCC(=O)N4CCN(C(=O)Cn5cc(-c6ccc(-c7cncc8ccccc78)cc6)cn5)CC4)c3C2=O)C(=O)N1 (centres unmarked) [IA7894, 2-(2,6-dioxopiperidin-3-yl)-4-((2-(2-(2-(3-(4-(2-(4-(4-(isoquinolin-4-yl)phenyl)-1H-pyrazol-1-yl)acetyl)piperazin-1-yl)-3-oxopropoxy)ethoxy)ethoxy)ethyl)amino) isoindoline-1,3-dione]",51

# Same assay, conditions: HEK-293 cells, 24 hours, tested at 1 μM
row,SMILES,% CDK8 remaining [%]
1,N#Cc1ccc2nccc(NCCc3ccc4cc(C(=O)N5CCN(C(=O)CCCCCCCCCCNC(=O)CCCNc6cccc7c6C(=O)N(C6CCC(=O)NC6=O)C7=O)CC5)ccc4c3)c2c1 (centres unmarked) [IA7843],13
2,"N#Cc1ccc2nccc(NCCc3ccc4cc(C(=O)N5CCN(C(=O)CCOCCOCCOCCNC(=O)CCNc6cccc7c6C(=O)N(C6CCC(=O)NC6=O)C7=O)CC5)ccc4c3)c2c1 (centres unmarked) [IA7830, N-[2-[2-[2-[3-[4-[6-[2-[(6-cyano-4-quinolyl)amino]ethyl]naphthalene-2-carbonyl]piperazin-1-yl]-3-oxo-propoxy]ethoxy]ethoxy]ethyl]-3-[[2-(2,6-dioxo-3-piperidyl)-1,3-dioxo-isoindolin-4-yl]amino]propanamide]",65
3,"N#Cc1ccc2nccc(NCCc3ccc4cc(C(=O)N5CCN(C(=O)CCOCCOCCNc6cccc7c6C(=O)N(C6CCC(=O)NC6=O)C7=O)CC5)ccc4c3)c2c1 (centres unmarked) [HV5958, 4-[2-[6-[4-[3-[2-[2-[[2-(2,6-dioxo-3-piperidyl)-1,3-dioxo-isoindolin-4-yl]amino]ethoxy]ethoxy]propanoyl]piperazine-1-carbonyl]-2-naphthyl]ethylamino]quinoline-6-carbonitrile]",27
4,"CN(CCCNC(=O)CCOCCOCCNc1cccc2c1C(=O)N(C1CCC(=O)NC1=O)C2=O)C(=O)c1ccc(N2CCCN(c3ccnc4sc(C(N)=O)c(N)c34)CC2)cc1 (centres unmarked) [HP8578, 3-amino-4-[4-[4-[3-[3-[2-[2-[[2-(2,6-dioxo-3-piperidyl)-1,3-dioxo-isoindolin-4-yl]amino]ethoxy]ethoxy]propanoylamino]propyl-methyl-carbamoyl]phenyl]-1,4-diazepan-1-yl]thieno[2,3-b]pyridine-2-carboxamide]",82
5,"N#Cc1ccc2nccc(NCCc3ccc4cc(C(=O)N5CCN(C(=O)CCCCCCCCNC(=O)CCOCCNc6cccc7c6C(=O)N(C6CCC(=O)NC6=O)C7=O)CC5)ccc4c3)c2c1 (centres unmarked) [IA7835, N-[9-[4-[6-[2-[(6-cyano-4-quinolyl)amino]ethyl]naphthalene-2-carbonyl]piperazin-1-yl]-9-oxo-nonyl]-3-[2-[[2-(2,6-dioxo-3-piperidyl)-1,3-dioxo-isoindolin-4-yl]amino]ethoxy]propanamide]",45
6,"CN(CCCNC(=O)CCOCCOCCOCCNc1cccc2c1C(=O)N(C1CCC(=O)NC1=O)C2=O)C(=O)c1ccc(N2CCCN(c3ccnc4sc(C(N)=O)c(N)c34)CC2)cc1 (centres unmarked) [HP8575, 3-amino-4-[4-[4-[3-[3-[2-[2-[2-[[2-(2,6-dioxo-3-piperidyl)-1,3-dioxo-isoindolin-4-yl]amino]ethoxy]ethoxy]ethoxy]propanoylamino]propyl-methyl-carbamoyl]phenyl]-1,4-diazepan-1-yl]thieno[2,3-b]pyridine-2-carboxamide]",77
7,"N#Cc1ccc2nccc(NCCc3ccc4cc(C(=O)N5CCN(C(=O)CCCCCCCCNC(=O)CCCCNc6cccc7c6C(=O)N(C6CCC(=O)NC6=O)C7=O)CC5)ccc4c3)c2c1 (centres unmarked) [IA7858, N-[9-[4-[6-[2-[(6-cyano-4-quinolyl)amino]ethyl]naphthalene-2-carbonyl]piperazin-1-yl]-9-oxo-nonyl]-5-[[2-(2,6-dioxo-3-piperidyl)-1,3-dioxo-isoindolin-4-yl]amino]pentanamide]",21
8,"NC(=O)c1sc2nccc(N3CCCN(c4ccc(C(=O)N5CCN(C(=O)CCOCCOCCOCCOCCNc6cccc7c6C(=O)N(C6CCC(=O)NC6=O)C7=O)CC5)cc4)CC3)c2c1N (centres unmarked) [IA7892, 3-amino-4-[4-[4-[4-[3-[2-[2-[2-[2-[[2-(2,6-dioxo-3-piperidyl)-1,3-dioxo-isoindolin-4-yl]amino]ethoxy]ethoxy]ethoxy]ethoxy]propanoyl]piperazine-1-carbonyl]phenyl]-1,4-diazepan-1-yl]thieno[2,3-b]pyridine-2-carboxamide]",41
9,"N#Cc1ccc2nccc(NCCc3ccc4cc(C(=O)N5CCN(C(=O)CCOCCOCCOCCOCCOCCNc6cccc7c6C(=O)N(C6CCC(=O)NC6=O)C7=O)CC5)ccc4c3)c2c1 (centres unmarked) [IA7812, 4-[2-[6-[4-[3-[2-[2-[2-[2-[2-[[2-(2,6-dioxo-3-piperidyl)-1,3-dioxo-isoindolin-4-yl]amino]ethoxy]ethoxy]ethoxy]ethoxy]ethoxy]propanoyl]piperazine-1-carbonyl]-2-naphthyl]ethylamino]quinoline-6-carbonitrile]",29
10,"N#Cc1ccc2nccc(NCCc3ccc4cc(C(=O)N5CCN(C(=O)CCCCCCCCC(=O)NCCCCCNc6cccc7c6C(=O)N(C6CCC(=O)NC6=O)C7=O)CC5)ccc4c3)c2c1 (centres unmarked) [IA7840, 10-[4-[6-[2-[(6-cyano-4-quinolyl)amino]ethyl]naphthalene-2-carbonyl]piperazin-1-yl]-N-[5-[[2-(2,6-dioxo-3-piperidyl)-1,3-dioxo-isoindolin-4-yl]amino]pentyl]-10-oxo-decanamide]",55
11,"Cc1ncsc1-c1ccc(CNC(=O)[C@@H]2C[C@@H](O)CN2C(=O)[C@@H](NC(=O)CCCCCCCCC(=O)N2CCN(C(=O)c3ccc4cc(CCNc5ccnc6ccc(C#N)cc56)ccc4c3)CC2)C(C)(C)C)cc1 (racemic) [IA7862, rac-(2S,4R)-4-hydroxy-N-[[4-(4-methylthiazol-5-yl)phenyl]methyl]-1-[rac-(2S)-2-[[10-[4-[6-[2-[(6-cyano-4-quinolyl)amino]ethyl]naphthalene-2-carbonyl]piperazin-1-yl]-10-oxo-decanoyl]amino]-3,3-dimethyl-butanoyl]pyrrolidine-2-carboxamide]",69
12,"N#Cc1ccc2nccc(NCCc3ccc4cc(C(=O)N5CCN(C(=O)CCNC(=O)CCOCCOCCOCCOCCNc6cccc7c6C(=O)N(C6CCC(=O)NC6=O)C7=O)CC5)ccc4c3)c2c1 (centres unmarked) [IA7822, N-[3-[4-[6-[2-[(6-cyano-4-quinolyl)amino]ethyl]naphthalene-2-carbonyl]piperazin-1-yl]-3-oxo-propyl]-3-[2-[2-[2-[2-[[2-(2,6-dioxo-3-piperidyl)-1,3-dioxo-isoindolin-4-yl]amino]ethoxy]ethoxy]ethoxy]ethoxy]propanamide]",65
13,"N#Cc1ccc2nccc(NCCc3ccc4cc(C(=O)N5CCN(C(=O)CCCCCCCCCNC(=O)CCCCCNc6cccc7c6C(=O)N(C6CCC(=O)NC6=O)C7=O)CC5)ccc4c3)c2c1 (centres unmarked) [IA7859, N-[10-[4-[6-[2-[(6-cyano-4-quinolyl)amino]ethyl]naphthalene-2-carbonyl]piperazin-1-yl]-10-oxo-decyl]-6-[[2-(2,6-dioxo-3-piperidyl)-1,3-dioxo-isoindolin-4-yl]amino]hexanamide]",81
14,"N#Cc1ccc2nccc(NCCc3ccc4cc(C(=O)N5CCN(C(=O)CCCCCCCCCNC(=O)COc6ccc7c(c6)CCCN7C(=O)CCl)CC5)ccc4c3)c2c1 [IA7875, 2-[[1-(2-chloroacetyl)-3,4-dihydro-2H-quinolin-6-yl]oxy]-N-[10-[4-[6-[2-[(6-cyano-4-quinolyl)amino]ethyl]naphthalene-2-carbonyl]piperazin-1-yl]-10-oxo-decyl]acetamide]",100

# Same assay, conditions: HEK-293 cells; concentration degrading CDK8 to half of level in untreated cells
row,SMILES,DC50 [nM]
1,N#Cc1ccc2nccc(NCCc3ccc4cc(C(=O)N5CCN(C(=O)CCCCCCCCCCNC(=O)CCCNc6cccc7c6C(=O)N(C6CCC(=O)NC6=O)C7=O)CC5)ccc4c3)c2c1 (centres unmarked) [IA7843],46

# System: SK-MM-2 cells
# Experiment: SK-MM-2 multiple myeloma cell growth over 20 days continuous treatment
# Assay type: cell-based
# Details: BI1347 200 nM, Senexin C 1 μM, IA7886 200 nM, IA7843 1 μM
# Description: The following CDK8/19 kinase inhibitors were tested for their effects on MM cell lines over 20 days continuous treatment: CDK8/19 kinase inhibitors BI1347 (200 nM) and Senexin C (1 μM), BI1347-derived PROTAC IA7886 (200 nM) and Senexin C-derived PROTAC IA7843 (1 μM). 1-4 million cells were treated with vehicle control (0.1% DMSO), or CDK8/19 kinase inhibitors or PROTACs for 20 days. Every 4 days, cells were counted using BioRAD TC20 Automated Cell Counter with trypan blue staining, and the same number of cells were passaged to a new T25 flask to propagate under the same treatment conditions.
row,SMILES,"growth inhibition over 20 days, order of efficacy"
1,"CN1CCN(C(=O)c2ccc3cc(CCNc4ccnc5ccc(C#N)cc45)ccc3c2)CC1 [Senexin C, reference compound]",BI1347<IA7886<Senexin C<IA7843
